Experiments:
wild-type WSN-UdM virus = type: cell-based, influenza A virus
viral replication = conditions: cited from earlier work

**Q.** For `NC12CC3CC(CC(C3)C1)C2` [amantadine], which “effect on virus yield and size of plaques” value (wild-type WSN-UdM virus) is on record?
**A.** Its value is “markedly reduced”.

**Q.** And the “concentrations at which the drug selectively inhibits viral replication” value (viral replication)?
**A.** Its value is 0.1 to 5 µM.

**Q.** What about the “concentrations of nonspecific action (increase in pH of endosomes)” value (viral replication) of the same compound?
**A.** Its value is over 50 μM.
